Laboratory results taken from BindingDB's records for doi:10.1021/jm034182u (Virginia Commonwealth University, 2004).

Target: E3 ubiquitin-protein ligase Mdm2 (Homo sapiens, UniProt Q00987)
Test: ELISA-Based p53-MDM2 Binding Assay
Conditions: pH 7.6; 37 °C
Procedure: ELISA plates were coated with equivalent amounts of either glutathione S-transferase (GST) protein or GST-MDM2 (1-188) fusion protein and incubated on a microtiter plate shaker overnight at 4 deg C. After washing the wells five times with PBS containing 0.2 M NaCl, the plates were incubated at 37 deg C with blocking solution (PBS containing 5% nonfat dry milk) for 2 hours. After the plates were washed five times, the GST-p53 was added, and the plates were incubated for an additional 30 minutes at 37 deg C. After another washing step, the plates were incubated with the anti-p53 monoclonal pAb421 (Oncogene Science, Inc.) in blocking solution for 1 hour at 37 deg C. The plates were again washed five times and incubated for 1 hour at 37 deg C with a goat anti-mouse IgG alkaline phosphatase conjugate (Promega, Inc.). Excess antibody was removed with 15 washes, the wells were filled with PBS, and the absorbance at 405 nm was read to establish background readings for the wells. […] Finally, the A405 was measured with a microplate spectrophotometer (Molecular Devices, Inc.). […] Absorbance values were normalized by subtraction of equivalent GST-seeded well values from their GST-mdm2 (1-188)-seeded neighbors. IC50 values were determined by fitting data to a three-parameter sigmoidal dose-response function.

Chain of E3 ubiquitin-protein ligase Mdm2 (Q00987 whole entry): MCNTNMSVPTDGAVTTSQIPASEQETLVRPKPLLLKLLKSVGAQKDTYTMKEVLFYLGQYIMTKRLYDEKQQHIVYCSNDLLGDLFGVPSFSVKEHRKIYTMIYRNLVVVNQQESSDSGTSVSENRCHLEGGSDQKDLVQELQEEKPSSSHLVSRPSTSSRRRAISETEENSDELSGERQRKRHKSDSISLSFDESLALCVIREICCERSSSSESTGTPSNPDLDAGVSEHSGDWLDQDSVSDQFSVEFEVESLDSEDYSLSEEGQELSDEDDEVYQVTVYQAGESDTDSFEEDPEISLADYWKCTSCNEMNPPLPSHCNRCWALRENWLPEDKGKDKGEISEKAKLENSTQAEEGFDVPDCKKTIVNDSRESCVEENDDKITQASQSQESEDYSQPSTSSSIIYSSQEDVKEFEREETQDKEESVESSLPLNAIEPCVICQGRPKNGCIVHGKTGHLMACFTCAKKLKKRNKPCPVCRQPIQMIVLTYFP

**Q.** Which IC50 does the source give for `CC(C)Oc1ccc(C(=O)NS(=O)(=O)c2ccc(N=Nc3c(O)n(-c4ccccc4)n(-c4ccccc4)c3=O)cc2)cc1` here?
**A.** 31.8 µM
